# The NIST ThermoML archive (doi:10.1016/j.fluid.2015.12.007)
# ± gives the expanded uncertainty stated by the source.
# Details: 101.33 kPa, Liquid; for speed of sound: Sing-around technique in a fixed-path interferometer; for mass density: Vibrating tube method
smiles,measurement,setting,value
CCCC[n+]1ccn(C)c1.O=S(=O)([N-]S(=O)(=O)C(F)(F)F)C(F)(F)F,speed of sound,293.15 K,1238.6 ± 1.2 m/s
same,mass density,293.15 K,1440.81 ± 0.23 kg/m3
same,speed of sound,298.15 K,1227.4 ± 1.2 m/s
same,mass density,298.15 K,1435.99 ± 0.23 kg/m3
same,speed of sound,303.15 K,1216.3 ± 1.2 m/s
same,mass density,303.15 K,1431.2 ± 0.22 kg/m3
same,speed of sound,308.15 K,1205.4 ± 1.2 m/s
same,mass density,308.15 K,1426.42 ± 0.22 kg/m3
same,speed of sound,313.15 K,1194.7 ± 1.2 m/s
same,mass density,313.15 K,1421.66 ± 0.22 kg/m3
same,speed of sound,318.15 K,1184.1 ± 1.2 m/s
same,mass density,318.15 K,1416.91 ± 0.22 kg/m3
"CC(O)CO (stereo not drawn) [1,2-propanediol]",speed of sound,293.15 K,1516.4 ± 1.3 m/s
same,mass density,293.15 K,1035.73 ± 0.14 kg/m3
same,speed of sound,298.15 K,1505.9 ± 1.3 m/s
same,mass density,298.15 K,1032.03 ± 0.13 kg/m3
same,speed of sound,303.15 K,1493.3 ± 1.3 m/s
same,mass density,303.15 K,1028.31 ± 0.13 kg/m3
same,speed of sound,308.15 K,1480 ± 1.3 m/s
same,mass density,308.15 K,1024.55 ± 0.13 kg/m3
same,speed of sound,313.15 K,1466.3 ± 1.3 m/s
same,mass density,313.15 K,1020.75 ± 0.13 kg/m3
same,speed of sound,318.15 K,1452.7 ± 1.3 m/s
same,mass density,318.15 K,1016.92 ± 0.13 kg/m3
CCCCn1cc[n+](C)c1.COS(=O)(=O)[O-] [1-butyl-3-methylimidazolium methyl sulfate],speed of sound,293.15 K,1669.8 ± 3.2 m/s
same,mass density,293.15 K,1211.97 ± 2.8 kg/m3
same,speed of sound,298.15 K,1657.1 ± 3.2 m/s
same,mass density,298.15 K,1208.61 ± 2.8 kg/m3
same,speed of sound,303.15 K,1644.6 ± 3.2 m/s
same,mass density,303.15 K,1205.25 ± 2.8 kg/m3
same,speed of sound,308.15 K,1632.4 ± 3.2 m/s
same,mass density,308.15 K,1201.89 ± 2.8 kg/m3
same,speed of sound,313.15 K,1620.4 ± 3.2 m/s
same,mass density,313.15 K,1198.54 ± 2.8 kg/m3
same,speed of sound,318.15 K,1608.8 ± 3.2 m/s
same,mass density,318.15 K,1195.2 ± 2.8 kg/m3
CCCCn1cc[n+](C)c1.F[B-](F)(F)F [1-butyl-3-methylimidazolium tetrafluoroborate],speed of sound,293.15 K,1576.6 ± 1.2 m/s
same,mass density,293.15 K,1204.89 ± 0.15 kg/m3
same,speed of sound,298.15 K,1564.9 ± 1.2 m/s
same,mass density,298.15 K,1201.33 ± 0.15 kg/m3
same,speed of sound,303.15 K,1553.6 ± 1.2 m/s
same,mass density,303.15 K,1197.78 ± 0.15 kg/m3
same,speed of sound,308.15 K,1542.2 ± 1.2 m/s
same,mass density,308.15 K,1194.23 ± 0.15 kg/m3
same,speed of sound,313.15 K,1530.9 ± 1.2 m/s
same,mass density,313.15 K,1190.7 ± 0.15 kg/m3
same,speed of sound,318.15 K,1520 ± 1.2 m/s
same,mass density,318.15 K,1187.18 ± 0.15 kg/m3
